According to patent US12016831B2, “Polidocanol for use as immunomodulating agent” (priority 2018, dated 2024):

What was measured:
Format in all cases: in vivo, human
[1] = tested on: patients suffering from venous insufficiency from minor to severe; assay: Likert survey on the "inflammatory" state in treated subjects
Experimental: A commercially available polidocanol solution (Atossisclerol®) was diluted to 0.05% with a physiological saline solution. A 1.4% sodium bicarbonate solution was then added in order to obtain a final concentration of 0.06%. […] To the questions on the quality of life, 10 more specific questions were added in order to assess possible variations of the “inflammatory” state (n=100 patients) after the treatment. The survey was based on the indications of: “Evaluation by Likert-type scale 4-point (0-absent, 1-moderate, 2-severe and 3-very severe)” Elleuch et al. Adv Ther. 2016 September; 33(9):1536-49. […] The survey was tailored on the Likert scale and aimed at evaluating the reduction of a number of symptoms related to chronic phlogosis, such as arthrosic or arthritis manifestations (both generic and autoimmune) with particular reference to articular mobility and pain, in subjects not suffering from full-blown diseases and apparently normal. The answers were indexed according to a scale from 0 to 3 (or from 0 to 2). Table 1 summarizes the percent individuals reporting an improvement of 50% after 4 or 15 treatments according to the invention, by self-assessment according to the Liked scale described above, for each of the following sign or symptom: […]

[2] = tested on: venous, reticular or capillary vessels of treated subjects; assay: Clinical observation of treated subjects: venous functionality, sclerosing effect, side effects; details: for sclerosing effect (venous, reticular or capillary parietal damage): diluted solution according to the invention, intravenous
Experimental: It is administered parenterally via the intravenous route.
Moreover, its use, for at least 4 applications every two months, contributes in determining a higher overall well-being, associated with an anti-inflammatory activity and with the modulation of several molecular markers of the immune and endothelial system. This modulation in addition to ameliorating the venous system functionality, which is objectively observed in most of the treated subjects (95-98%) and results in a reduction of the limbs heaviness sensation and of orthostatic oedema and cellulitis, exert a systemic effects, often also accompanied by an improved skin trophism.
There is almost no evidence even of quite common reactions (0.1-1%), such as superficial thrombophlebitis, allergic dermatitis, hives, erythema, skin necrosis.
Therefore, a further aspect of the present invention is a composition comprising polidocanol in concentration below 0.1%, preferably of from 0.03 to 0.09% by weight, preferably of from 0.04 to 0.08%, preferably of 0.05%-0.06% in saline solution (0.9% w/V NaCl) for use as immunomodulating and anti-inflammatory agent.

subject with psoriasis = assay: Skin rashes in a subject with psoriasis after a single treatment; details: pictures at T=0 and after 30 days (FIG. 3)
Experimental: FIG. 3. Treatment of peripheral venous insufficiency in a subject with psoriasis. The subject was treated with a single dose of diluted polidocanol 0.1%. Pictures were taken at T=0 (panel A) and after 30 days (panel B).

[3] = % of patients, n=100, after at least 4-5 treatments
[4] = after several treatments (12-14)
[5] = compared to the previous year, n=100
[6] = up to 2 months after the treatment, n=100

Polidocanol [diluted polidocanol]
1. Articular mobility, % individuals reporting an improvement of 50% ([1]; 4 treatments, 100 individuals): 78% | 2. Reduction of pain, % individuals reporting improvement ([1]; 4 treatments, 100 individuals): 68% | 3. Reduction of symptoms, % individuals reporting improvement ([1]; 4 treatments, 100 individuals): 30% | 4. Skin trophism, % individuals reporting improvement ([1]; 4 treatments, 100 individuals): 87% | 5. Hair, % individuals reporting improvement ([1]; 4 treatments, 100 individuals): 90% | 6. Reduction of infections, % individuals reporting improvement ([1]; 4 treatments, 100 individuals): 70% | 7. Feeing of wellness, % individuals reporting improvement ([1]; 4 treatments, 100 individuals): 30% | 8. Feeling of lightness (lower limbs), % individuals reporting improvement ([1]; 4 treatments, 100 individuals): 70% | 9. Improvement of "cellulitis", % individuals reporting improvement ([1]; 4 treatments, 100 individuals): 54% | 10. Improvement of sleep-wake rythm, % individuals reporting improvement ([1]; 4 treatments, 100 individuals): 30% | Don't feel stopping treatment, % individuals ([1]; 4 treatments, 100 individuals): 26% | 1. Articular mobility, % individuals reporting an improvement of 50% ([1]; 15 treatments, 200 individuals): 90% | 2. Reduction of pain, % individuals reporting improvement ([1]; 15 treatments, 200 individuals): 82% | 3. Reduction of symptoms, % individuals reporting improvement ([1]; 15 treatments, 200 individuals): 60% | 4. Skin trophism, % individuals reporting improvement ([1]; 15 treatments, 200 individuals): 98% | 5. Hair, % individuals reporting improvement ([1]; 15 treatments, 200 individuals): 95% | 6. Reduction of infections, % individuals reporting improvement ([1]; 15 treatments, 200 individuals): 85% | 7. Feeing of wellness, % individuals reporting improvement ([1]; 15 treatments, 200 individuals): 70% | 8. Feeling of lightness (lower limbs), % individuals reporting improvement ([1]; 15 treatments, 200 individuals): 98% | 9. Improvement of "cellulitis", % individuals reporting improvement ([1]; 15 treatments, 200 individuals): 86% | 10. Improvement of sleep-wake rythm, % individuals reporting improvement ([1]; 15 treatments, 200 individuals): 56% | Don't feel stopping treatment, % individuals ([1]; 15 treatments, 200 individuals): 56% | Feeling of lightness in the lower limbs, 0: no variations ([1]; % of patients, n=100): 2% | Feeling of lightness in the lower limbs, 1: lighter limbs ([1]; % of patients, n=100): 70% | Feeling of lightness in the lower limbs, 2: lighter limbs and no oedema in the evenings ([1]; % of patients, n=100): 28% | Improvement of "cellulitis", 1: lighter limbs ([1]; % of patients, n=100): 54% | Improvement of "cellulitis", 2: lighter limbs and no oedema in the evenings ([1]; % of patients, n=100): 36% | Improvement of skin trophism, 0: no variations ([1]; % of patients, n=100): 5% | Improvement of the hair trophism, results positive ([1]; % of patients, n=100): 90% | Improvement of the sleep-wake rhythm, 0: no variations ([1]; % of patients, n=100): 63% | Improvement of the sleep-wake rhythm, 1: I don't know: maybe ([1]; % of patients, n=100): 30% | Improvement of the sleep-wake rhythm, 2: I'm sleeping better and wake-up more rested ([1]; % of patients, n=100): 7% | Improvement of the so-called "cellulitis", 0: no variations ([1]; % of patients, n=100): 10% | Reduction of pain related to chronic inflammatory events, 0: no variations ([1]; % of patients, n=100): 20% | Reduction of pain, 1: 20% reduction of pain-related symptoms ([1]; % of patients, n=100): 12% | Reduction of pain, 2: 50% reduction of pain-related symptoms ([1]; % of patients, n=100): 68% | Reduction of pain, 3: 70% reduction of pain-related symptoms ([1]; % of patients, n=100): 0% | Skin trophism, 1: slight improvement of the skin elasticity and of the trophism at the touch in the lower limbs ([1]; % of patients, n=100): 87% | Skin trophism, 2: slight improvement of the skin elasticity and of the trophism at the touch in the whole body ([1]; % of patients, n=100): 60% | Skin trophism, 3: improvement extended to the skin of the face ([1]; % of patients, n=100): 16% | Articular mobility, 0: no variations [1, 3]: 13% | Articular mobility, 1: 20% mobility improvement [1, 3]: 7% | Articular mobility, 2: 50% mobility improvement [1, 3]: 78% | Articular mobility, 3: 70% mobility improvement [1, 3]: 2% | cases with improved skin elasticity and smoother skin also in the face [1, 4]: 16% | cases with improved skin elasticity and smoother skin in general [1, 4]: 60% | Reduction of infective events, 0: no variations [1, 5]: 18% | Reduction of infective events, 1: maybe less infective events [1, 5]: 12% | Reduction of infective events, 2: definitely significant reduction [1, 5]: 70% | Reduction of symptoms, 1: 20% attenuation of manifestations related to skin and articular mobility ([1]; number of patients, n=12): 5 N. | Reduction of symptoms, 2: 50% attenuation of manifestations related to skin and articular mobility ([1]; number of patients, n=12): 4 N. | Reduction of symptoms, 3: 70% attenuation of manifestations related to skin and articular mobility ([1]; number of patients, n=12): 1 N. | Reduction of symptoms of chronic degenerative pathologies of immune and inflammatory genesis, 0: no variations ([1]; number of patients, n=12 (e.g. psoriasis, rheumatoid arthritis)): 2 N. | Feeling of well-being, 0: no variations [1, 6]: 12% | Feeling of well-being, 1: I feel a bit better but I don't know [1, 6]: 32% | Feeling of well-being, 2: I feel a bit better in the sense that I have a feeling of well-being [1, 6]: 30% | Feeling of well-being, 3: life without the treatment is not the same, I feel the need to undergo treatment [1, 6]: 26% | treated subjects in which ameliorated venous system functionality is objectively observed ([2]; at least 4 applications every two months): 95-98% | side effects ([2]; concentrations of the treatment according to the invention, vs traditional sclerotherapy): very limited to zero side effects | sclerosing effect (venous, reticular or capillary parietal damage) [2]: does not exert a sclerosing effect | sclerosing effect (venous, reticular or capillary parietal damage) ([2]; listed as polidocanol): non-sclerosing effect | polidocanol concentrations having a sclerosing effect on small calibre capillaries or reticular veins ([2]; human, in vivo): ≥ 0.12% | skin rashes in a subject with psoriasis (subject with psoriasis): improve visibly the skin rashes
